The test system of series [1] is Human non-small cell lung cancer cells NCI-H1975. The series can be described thus: Cell proliferation assay, NCI-H1975 (CellTiter-Glo). It is filed as cell-based. As to conditions: NCI-H1975, treatment 72 hours, read-out: Cell viability (IC50 nM) NCI-H1975. The method, then:
Human non-small cell lung cancer cells NCI-H1975 were cultured in RPIM-1640 culture medium supplemented with 10% fetal bovine serum and 1% penicillin-plus-streptomycin in a cell incubator (37° C., 5% CO2). The cells were seeded in a 96-well plate at a density of 2,000 cells per well (volume: 195 μl) and cultured overnight. On the next day, the compounds were added. In particular, the compounds were diluted at a 3-fold gradient with a starting concentration of 10 mM. 4 μl of each concentration was taken and added into 96 μl of culture medium. […] After treatment for 72 hours, the medium was aspirated and 30 μl of CellTiter-Glo® (Promega) reagent was added. Fluorescence signals were read on Envison (Perkin Elmer), and IC50 values of the compounds for inhibiting cell proliferation were calculated using GraphPad Prism 5.0.

Series [2] has as its system Human skin squamous carcinoma cell line A431. Description: Cell proliferation assay, A431 (soft agar, CellTiter-Blue). It is filed as cell-based. As to conditions: A-431, 168 h, A431, treatment 7 days, read-out: Cell viability (IC50 nM) A431. As for the experimental part:
Human skin squamous carcinoma cell line A431 was cultured in DMEM supplemented with 10% fetal bovine serum and 1% penicillin-plus-streptomycin in a cell incubator (37° C., 5% CO2). In the tests of the compounds, the bottom substrate was at a concentration of 0.6%. Cells were re-suspended with 0.3% low-melting-point agar, and then seeded in a 96-well plate at a density of 2,000 cells per well (100 μl). The compounds were diluted at a 3-fold gradient with a starting concentration of 10 mM. 2 μl of each concentration was taken and added to 98 μl of culture medium, and then 5.3 μl of the mixture was added to the cell culture medium (final DMSO concentration being 0.1%, v/v). After treatment for one week (7 days), 20 μl of CellTiter-Blue® (Promega) reagent was added, and the plate was incubated at 37° C. for 4 hours. Fluorescence signals were read on Envison (Perkin Elmer), and IC50 values of the compound for inhibiting cell proliferation were calculated using GraphPad Prism 5.0.

The next series concerns the target T1, EGFR(WT) (Homo sapiens, UniProt P00533).
T1 construct: made in house; host or cells: insect cell expression system
The series can be described thus: In vitro enzymatic assay (HTRF), EGFR kinase. It is filed as biochemical.

Series [3] can be described thus: Pharmacokinetic assay in rats. It is filed as in vivo. As to conditions: PO 10 mg/kg single dose, plasma. The method, then:
Healthy adult male rats were subjected to single-dose intragastric administration of the test compounds at a dose of 10 mg/kg with 20% sulfobutyl ether-β-cyclodextrin as an excipient. Before the experiment, the animals were fasted overnight, and the fasting time last from 10 hrs prior to the administration to 4 hrs after the administration. At 0.25, 0.5, 1, 2, 4, 6, 8 and 24 hrs after the intragastric administration, blood sampling was conducted. Approximately 0.3 mL of whole blood was collected from retro-orbital venous sinus, and placed into tubes that contained heparin as an anticoagulant. The samples were centrifuged at 4° C. and 4000 rpm for 5 min. The plasma was transferred into centrifuge tubes, and stored at −80° C. till being analyzed. Concentrations of test compounds in the plasma samples were analyzed with non-validated liquid chromatography-tandem mass spectrometry (LC-MS/MS). Plasma concentration-time data of individual animals was analyzed using WinNonlin (Professional Edition, version 6.3; Pharsight Company) software. Non-compartmental model was introduced in concentration analysis. The pharmacokinetic parameters of the test compounds were calculated.

[4] abbreviates: male rats, Hydrochloride, 10 mg/kg.

Structures can show the parent of a compound that is named as a salt. Where two headings read alike, the source gives them in different places.

T1 sequence (P00533 25-1210): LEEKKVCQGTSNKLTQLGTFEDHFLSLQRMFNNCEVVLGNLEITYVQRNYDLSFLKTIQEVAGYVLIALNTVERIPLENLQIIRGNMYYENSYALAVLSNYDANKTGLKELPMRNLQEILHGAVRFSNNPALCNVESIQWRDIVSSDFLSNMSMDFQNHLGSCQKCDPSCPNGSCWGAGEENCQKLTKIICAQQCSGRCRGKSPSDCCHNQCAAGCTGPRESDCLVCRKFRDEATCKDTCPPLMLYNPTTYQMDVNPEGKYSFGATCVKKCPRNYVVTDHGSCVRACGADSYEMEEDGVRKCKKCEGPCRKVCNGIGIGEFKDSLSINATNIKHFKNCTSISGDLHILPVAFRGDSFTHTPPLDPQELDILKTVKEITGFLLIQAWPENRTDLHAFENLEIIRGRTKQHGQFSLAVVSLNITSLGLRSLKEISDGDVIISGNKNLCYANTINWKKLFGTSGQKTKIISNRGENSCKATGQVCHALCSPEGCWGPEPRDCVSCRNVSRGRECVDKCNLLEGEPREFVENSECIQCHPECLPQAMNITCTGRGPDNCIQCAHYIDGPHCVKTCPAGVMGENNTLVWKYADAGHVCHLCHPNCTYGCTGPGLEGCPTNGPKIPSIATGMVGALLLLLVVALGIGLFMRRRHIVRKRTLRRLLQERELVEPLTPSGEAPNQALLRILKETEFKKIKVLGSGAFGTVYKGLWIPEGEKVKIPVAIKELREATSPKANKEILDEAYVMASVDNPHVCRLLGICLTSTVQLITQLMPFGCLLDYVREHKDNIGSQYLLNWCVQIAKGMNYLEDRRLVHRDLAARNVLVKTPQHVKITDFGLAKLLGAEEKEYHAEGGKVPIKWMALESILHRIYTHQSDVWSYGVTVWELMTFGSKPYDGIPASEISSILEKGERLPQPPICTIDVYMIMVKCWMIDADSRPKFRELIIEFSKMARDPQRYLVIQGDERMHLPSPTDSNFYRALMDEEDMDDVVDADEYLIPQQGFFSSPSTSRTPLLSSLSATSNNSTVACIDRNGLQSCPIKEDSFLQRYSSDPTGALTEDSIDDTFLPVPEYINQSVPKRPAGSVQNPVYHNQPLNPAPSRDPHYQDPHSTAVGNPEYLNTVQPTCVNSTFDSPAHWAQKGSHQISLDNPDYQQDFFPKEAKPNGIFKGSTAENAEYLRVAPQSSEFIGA

In the case of `C=CC(=O)Nc1cc(Nc2nccc(-c3cn(C)c4ccccc34)n2)c(OC)cc1N(C)CCN(C)C` [AZD9291, reference compound], the IC50 in series [1] is 9.08 nM; in series [2], 53.5 nM.

`C=CC(=O)Nc1cc(Nc2nccc(-n3c(=O)n(C)c4ccccc43)n2)c(OC)cc1N(C)CCN(C)C` [Example 1, N-(2-((2-(dimethylamino)ethyl)(methyl)amino)-4-methoxy-5-(4-(3-methyl-2-oxo-2,3-dihydro-1H-benzo[d]imidazol-1-yl)pyrimidin-2-ylamino)phenyl)acrylamide Hydrochloride]: the IC50 in series [1] was found to be 2.76 nM. For the same compound, the IC50 in series [2] was found to be 22.5 nM. For the same compound, the IC50 on EGFR(WT) was found to be 9.07 nM. Besides, the Tmax in series [3] (male rats) is 40.2 min. Further, in series [3] (setting [4]), the AUC0-INF worked out at 667 ng·h/mL, the Cmax is listed as 272 ng/mL and the t1/2 stood at 67.2 min.

For the compound `C=CC(=O)Nc1cc(Nc2nccc(-n3c(=O)[nH]c4ccccc43)n2)c(OC)cc1N(C)CCN(C)C` [Example 2, N-(2-((2-(dimethylamino)ethyl)(methyl)amino)-4-methoxy-5-(4-(2-oxo-2,3-dihydrobenzo[d]imidazol-1-yl)pyrimidin-2-ylamino)phenyl)acrylamide Hydrochloride], the IC50 is 0.96 nM in series [1] and 2.59 nM on EGFR(WT).

As for `C=CC(=O)Nc1cc(Nc2ncc(Cl)c(-n3c(=O)n(C)c4ccccc43)n2)c(OC)cc1N(C)CCN(C)C` [Example 3, N-(5-(5-chloro-4-(3-methyl-2-oxo-2,3-dihydro-1H-benzo[d]imidazol-1-yl)pyrimidin-2-ylamino)-2-((2-(dimethylamino)ethyl)(methyl)amino)-4-methoxyphenyl) acrylamide Hydrochloride], the IC50 against EGFR(WT) was 196 nM.

As for `C=CC(=O)Nc1cc(Nc2ncc(Cl)c(-n3c(=O)[nH]c4ccccc43)n2)c(OC)cc1N(C)CCN(C)C` [Example 4, N-(5-(5-chloro-4-(2-oxo-2,3-dihydro-1H-benzo[d]imidazol-1-yl)pyrimidin-2-ylamino)-2-((2-(dimethylamino)ethyl)(methyl)amino)-4-methoxyphenyl) acrylamide Hydrochloride], the IC50 in series [1] worked out at 2.87 nM; at EGFR(WT), 20.6 nM.

For `C=CC(=O)Nc1cc(Nc2nccc(-n3c(=O)oc4ccccc43)n2)c(OC)cc1N(C)CCN(C)C` [Example 5, N-(2-((2-(dimethylamino)ethyl)(methyl)amino)-4-methoxy-5-(4-(2-oxobenzo[d]oxazol-3(2H)-yl)pyrimidin-2-ylamino)phenyl) acrylamide Hydrochloride], the values for the IC50 (in series [1]; on EGFR(WT)) were 17 nM and 44.9 nM, respectively.

On EGFR(WT), `COC/C=C/C(=O)Nc1cc(Nc2nccc(-n3c(=O)n(C)c4ccccc43)n2)c(OC)cc1N(C)CCN(C)C` [Example 7, (E)-N-(2-((2-(dimethylamino)ethyl)(methyl)amino)-4-methoxy-5-(4-(3-methyl-2-oxo-2,3-dihydro-1H-benzo[d]imidazol-1-yl)pyrimidin-2-ylamino)phenyl)-4-methoxybut-2-enamide] returned an IC50 of 164 nM.

At EGFR(WT), `C=CC(=O)Nc1cc(Nc2nccc(-n3c(=O)[nH]c4cc(C)ccc43)n2)c(OC)cc1N(C)CCN(C)C` [Example 9, N-(2-((2-(dimethylamino)ethyl)(methyl)amino)-4-methoxy-5-(4-(5-methyl-2-oxo-2,3-dihydrobenzo[d]imidazol-1-yl)pyrimidin-2-ylamino)phenyl)acrylamide Hydrochloride] gave a half-inhibitory concentration (IC50) of 3.93 nM.

As for `C=CC(=O)Nc1cc(Nc2nccc(-n3c(=O)n(C)c4cc(F)ccc43)n2)c(OC)cc1N(C)CCN(C)C` [Example 10, N-(2-((2-(dimethylamino)ethyl)(methyl)amino)-5-(4-(5-fluoro-3-methyl-2-oxo-2,3-dihydrobenzo[d]imidazol-1-yl)pyrimidin-2-ylamino)-4-methoxyphenyl) acrylamide Hydrochloride], the IC50 in series [1] was 1.46 nM; against EGFR(WT), 10.7 nM.

With `C=CC(=O)Nc1cc(Nc2nccc(-n3c(=O)[nH]c4cc(F)ccc43)n2)c(OC)cc1N(C)CCN(C)C` [Example 11, N-(2-((2-(dimethylamino)ethyl)(methyl)amino)-5-(4-(5-fluoro-2-oxo-2,3-dihydrobenzo[d]imidazol-1-yl)pyrimidin-2-ylamino)-4-methoxyphenyl)acrylamide Hydrochloride], the IC50 is 3.7 nM in series [1] and 2.79 nM on EGFR(WT).

With `C=CC(=O)Nc1cc(Nc2nccc(-n3c(=O)n(C)c4ccccc43)n2)c(OC)cc1N(C)CCNC` [Example 12, N-(4-methoxy-2-(methyl(2-(methylamino)ethyl)amino)-5-(4-(3-methyl-2-oxo-2,3-dihydrobenzo[d]imidazol-1-yl)pyrimidin-2-ylamino)phenyl)acrylamide Hydrochloride], the figures for the IC50 (in series [1]; at EGFR(WT)) were 3.17 nM and 5.26 nM, respectively.

In series [3] (male rats, 10 mg/kg), `C=CC(=O)Nc1cc(Nc2nccc(-n3c(=O)n(C)c4ccccc43)n2)c(OC)cc1N(C)CCN(C)C` [Example 13, N-(2-((2-(dimethylamino)ethyl)(methyl)amino)-4-methoxy-5-(4-(3-methyl-2-oxo-2,3-dihydro-1H-benzo[d]imidazol-1-yl)pyrimidin-2-ylamino)phenyl)acrylamide] returned a Cmax of 94.4 ng/mL and a t1/2 of 147 min. The same compound yielded an AUC(0-inf) in series [3] (male, rat, po, 10 mg/kg) of 401 ng·h/mL. Also, the Tmax in series [3] (rat, male rats, read-out: Tmax) came out at 40.2 min.

As to `C=CC(=O)Nc1cc(Nc2nccc(-n3c(=O)n(C)c4cc(Cl)ccc43)n2)c(OC)cc1N(C)CCN(C)C` [Example 14, N-(5-(4-(5-chloro-3-methyl-2-oxo-2,3-dihydro-1H-benzo[d]imidazole-1-yl)pyrimidin-2-ylamino)-2-((2-(dimethylamino)ethyl)(methyl)amino)-4-methoxyphenyl) acrylamide Hydrochloride], the half-inhibitory concentration (IC50) in series [1] was found to be 4.56 nM; in series [2], 538 nM.

With `C=CC(=O)Nc1cc(Nc2nccc(-n3c(=O)n(C)c4cc(Br)ccc43)n2)c(OC)cc1N(C)CCN(C)C` [Example 15, N-(5-(4-(5-bromo-3-methyl-2-oxo-2,3-dihydro-1H-benzo[d]imidazole-1-yl)pyrimidin-2-ylamino)-2-((2-(dimethylamino)ethyl)(methyl)amino)-4-methoxyphenyl) acrylamide Hydrochloride], the IC50 in series [1] is 6.83 nM; in series [2] it was 834 nM.

For the origin of these results see patent US10329277B2, “N-(2-((2-(dimethylamino)ethyl)(methyl)amino)-4-methoxy-5-((4-(3-methyl-2-OXO-2,3-dihydro-1h-benzo[d]imidazol-1-yl)pyrimidin-2-yl)amino)phenyl)acrylamide hydrochloride as an inhibitor of epidermal growth factor receptor activity” (CHIA TAI TIANQING PHARMACEUTICAL GROUP CO., LTD., priority 2015, dated 2019).
